Data published in ChEMBL document CHEMBL1143861, “Chemical modulators of heat shock protein 70 (Hsp70) by sequential, microwave-accelerated reactions on solid phase” (Bioorg Med Chem Lett, 2008).
Calls of active or inactive are those of the source. No cut-off for these calls is given here.

Columns and labels:
[1] = Activation of bovine Hsp70 ATPase activity; parameters: species or system Bos taurus
[2] = (§1) Activation of Escherichia coli DnaK ATPase activity
[3] = Inhibition of Escherichia coli DnaK ATPase activity
[4] = Inhibition of bovine Hsp70 ATPase activity; parameters: species or system Bos taurus
[5] = Activity against Escherichia coli DnaK ATPase activity
[6] = Activity against bovine Hsp70 ATPase activity; parameters: species or system Bos taurus
Escherichia coli = assay: as §1

Row | EC50 [5] | EC50 [6] | SMILES | further results
1 | – | – | CCOC(=O)C1=C(C)N(CCCC(=O)N[C@H](CC(=O)NCCC(=O)O)Cc2cccc3ccccc23)C(=O)NC1c1ccc(Br)cc1 (some centres undefined) | EC50 [1]: 179 µM; EC50 [2]: 190 µM
2 | – | – | CCOC(=O)C1=C(C)N(CCCC(=O)N[C@@H](CCCCN)CC(=O)N[C@@H](CCc2ccccc2)CC(=O)NCCC(=O)O)C(=O)NC1c1ccc(Br)cc1 (some centres undefined) | EC50 [3]: 107 µM; EC50 [4]: 105 µM
3 | – | – | CCOC(=O)C1=C(C)N(CCCC(=O)N[C@@H](CCc2ccccc2)CC(=O)N[C@@H](CCCCN)CC(=O)NCCC(=O)O)C(=O)NC1c1ccc(Br)cc1 (some centres undefined) | EC50 [3]: 325 µM; EC50 [4]: 265 µM
4 | > 400 µM | > 400 µM | CCOC(=O)C1=C(C)N(CCCC(=O)N[C@H](CC(=O)NCCC(=O)O)C(C)C)C(=O)NC1c1ccc(Br)cc1 (some centres undefined) | –
5 | > 400 µM | > 400 µM | CCOC(=O)C1=C(C)N(CCCC(=O)N[C@H](CC(=O)N[C@H](CC(=O)NCCC(=O)O)CC(C)C)CC(C)C)C(=O)NC1c1ccc(Br)cc1 (some centres undefined) | –
6 | – | – | CCOC(=O)C1=C(C)N(CCCC(=O)N[C@H](CC(=O)N[C@H](CC(=O)NCCC(=O)O)Cc2cccc3ccccc23)C(C)C)C(=O)NC1c1ccc(Br)cc1 (some centres undefined) | EC50 [1]: 255 µM; Activity (Escherichia coli): inactive
7 | – | – | CCOC(=O)C1=C(C)N(CCCC(=O)OC)C(=O)NC1c1ccc(Br)cc1 (centres undefined) | EC50 [1]: 213 µM; Activity (Escherichia coli): inactive
8 | > 400 µM | > 400 µM | CCOC(=O)C1=C(C)N(CCCC(=O)NCCC(=O)NCCC(=O)O)C(=O)NC1c1ccc(Br)cc1 (centres undefined) | –
9 | > 400 µM | > 400 µM | CCOC(=O)C1=C(C)N(CCCC(=O)N[C@H](CC(=O)NCCC(=O)O)c2ccccc2)C(=O)NC1c1ccc(Br)cc1 (some centres undefined) | –
10 | – | – | CCOC(=O)C1=C(C)N(CCCC(=O)N[C@@H](CCc2ccccc2)CC(=O)NCCC(=O)O)C(=O)NC1c1ccc(Br)cc1 (some centres undefined) | EC50 [1]: 190 µM; Activity (Escherichia coli): inactive
11 | > 400 µM | > 400 µM | CCOC(=O)C1=C(C)N(CCCC(=O)NCCC(=O)NCCC(=O)NCCC(=O)O)C(=O)NC1c1ccc(Br)cc1 (centres undefined) | –
12 | > 400 µM | > 400 µM | CCOC(=O)C1=C(C)N(CCCC(=O)N[C@H](CC(=O)N[C@H](CC(=O)NCCC(=O)O)c2ccccc2)CC(C)C)C(=O)NC1c1ccc(Br)cc1 (some centres undefined) | –
13 | – | – | CCOC(=O)C1=C(C)N(CCCC(=O)N[C@@H](CCCCN)CC(=O)N[C@H](CC(=O)NCCC(=O)O)[C@@H](C)CC)C(=O)NC1c1ccc(Br)cc1 (some centres undefined) | EC50 [1]: 352 µM; Activity (Escherichia coli): inactive
14 | > 400 µM | > 400 µM | CCOC(=O)C1=C(C)N(CCCC(=O)O)C(=O)NC1c1ccc(Br)cc1 (centres undefined) | –
15 | > 400 µM | > 400 µM | CCOC(=O)C1=C(C)N(CCCC(=O)N[C@H](CC(=O)NCCC(=O)O)CC(C)C)C(=O)NC1c1ccc(Br)cc1 (some centres undefined) | –
16 | > 400 µM | > 400 µM | CCOC(=O)C1=C(C)N(CCCC(=O)N[C@@H](CCCCN)CC(=O)NCCC(=O)O)C(=O)NC1c1ccc(Br)cc1 (some centres undefined) | –
17 | > 400 µM | > 400 µM | CCOC(=O)C1=C(C)N(CCCC(=O)N[C@H](CC(=O)NCCC(=O)O)[C@@H](C)CC)C(=O)NC1c1ccc(Br)cc1 (some centres undefined) | –
